According to patent publication US7928103B2, “Compounds which modulate the CB2 receptor” (Boehringer Ingelheim International GmbH, priority 2006, dated 2011):

Assays:
human CB2R [1] = biological target: T1, human CB2R (Homo sapiens, UniProt P34972); test: CB2R mediated modulation of cAMP synthesis; assay type: cell-based; design: host or cells: CHO cells; conditions: agonists decrease forskolin induced production of cAMP; CHO cells expressing human CB2R
Protocol: B. CB2R Mediated Modulation of cAMP Synthesis:
Compounds of the invention were evaluated for their CB2 agonist or inverse agonistic activity in accordance with the following experimental method.
CHO cells expressing human CB2R (Euroscreen) were plated at a density of 5000 cells per well in 384 well plates and incubated overnight at 37° C. After removing the media, the cells were treated with test compounds diluted in stimulation buffer containing 1 mM IBMX, 0.25% BSA and 10 uM Forskolin. The assay was incubated for 30 minutes at 37° C. Cells were lysed and the cAMP concentration was measured using DiscoverX-XS cAMP kit, following the manufacturer's protocol. In this setting, agonists will decrease forskolin induced production of cAMP while inverse agonists will further increase forskolin induced production of cAMP. EC50 of agonists were calculated as follows. The maximal amount of cAMP produced by forskolin compared to the level of cAMP inhibited by 1 uM CP55940 is defined as 100%. The EC50 value of each test compound was determined as the concentration at which 50% of the forskolin-stimulated cAMP synthesis was inhibited. Data was analyzed using a four-parameter logistic model. (Model 205 of XLfit 4.0).

human CB2R [2] = biological target: T1, human CB2R; test: Human CB2 receptor binding (3H-CP55940 competition, SPA); design: purchased Perkin Elmer Life and Analytical Sciences; host or cells: HEK293 EBNA cells, stably transfected; conditions: through the use of the above described assays (CB1/CB2 binding, CB2R and CB1R cAMP); assay not specified further
Protocol: A. Human CB1 and CB2 Receptor Binding:
CB2 membranes were purchased and made from HEK293 EBNA cells stably transfected with human CB2 receptor cDNA (Perkin Elmer Life and Analytical Sciences). CB1 membranes were isolated from HEK cells stably co-transfected with human CB1 receptor and Gα16 cDNA's. The membrane preparation was bound to scintillation beads (Ysi-Poly-L-lysine SPA beads, GE Healthcare) for 4 hours at room temperature in assay buffer containing 50 mM Tris, pH 7.5, 2.5 mM EDTA, 5 mM MgCl2, 0.8% fatty acid free Bovine Serum Albumin. Unbound membrane was removed by washing in assay buffer. Membrane-bead mixture was added to 96-well assay plates in the amounts of 15 ug membrane per well (CB2) or 2.5 ug per well (CB1) and 1 mg SPA bead per well. Compounds were added to the membrane-bead mixture in dose-response concentrations ranging from 1×10^−5 M to 1×10^−10 M with 0.25% DMSO, final. The competition reaction was initiated with the addition of ^3H-CP55940 (Perkin Elmer Life and Analytical Sciences) at a final concentration of 1.5 nM (CB2) or 2.5 nM (CB1). The reaction was incubated at room temperature for 18 hours and read on TopCount NXT plate reader. Total and non-specific binding was determined in the absence and presence of 1.25 uM Win 55212 (Sigma). IC50 values for each compound were calculated as the concentration of compound that inhibits the specific binding of the radioactively labeled ligand to the receptor by 50% using the XLFit 4.1 four parameter logistic model. IC50 values were converted to inhibition constant (Ki) values using Cheng-Prusoff equation.

T1 sequence (P34972 whole entry): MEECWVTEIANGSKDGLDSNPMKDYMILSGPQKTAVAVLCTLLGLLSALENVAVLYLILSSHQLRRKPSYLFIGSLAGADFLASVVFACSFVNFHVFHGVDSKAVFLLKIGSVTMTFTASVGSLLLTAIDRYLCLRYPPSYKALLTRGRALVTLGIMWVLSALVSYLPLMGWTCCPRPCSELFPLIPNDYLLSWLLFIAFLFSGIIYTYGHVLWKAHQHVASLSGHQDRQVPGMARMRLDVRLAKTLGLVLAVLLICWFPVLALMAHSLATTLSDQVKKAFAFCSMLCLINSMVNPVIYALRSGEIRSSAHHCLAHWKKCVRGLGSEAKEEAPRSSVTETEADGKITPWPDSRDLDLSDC

Row | Structure (SMILES) | found to exhibit agonistic activity (human CB2R [1]) | found to exhibit activity (human CB2R [2])
1 | c1ccc([C@H]2CN(Cc3ccc(Nc4cnc5ccccc5c4)nc3)CCO2)cc1 [Example 11, [5-((S)-2-Phenyl-morpholin-4-ylmethyl)-pyridin-2-yl]-quinolin-3-yl-amine] | exhibit agonistic activity | exhibit activity
2 | CCOc1ccc(Nc2ccc(CN3CCO[C@@H](c4ccccc4)C3)cn2)cc1 [Example 3, (4-Ethoxy-phenyl)-[5-((S)-2-phenyl-morpholin-4-ylmethyl)-pyridin-2-yl]-amine] | exhibit agonistic activity | exhibit activity
3 | Clc1ccc(Cl)c(Nc2ccc(CN3CCO[C@@H](c4ccccc4)C3)cn2)c1 [Example 20, (2,5-Dichloro-phenyl)-[5-((S)-2-phenyl-morpholin-4-ylmethyl)-pyridin-2-yl]-amine] | exhibit agonistic activity | exhibit activity
4 | Clc1cccc(Nc2ccc(CN3CCO[C@@H](c4ccccc4)C3)cn2)c1Cl [Example 18, (2,3-Dichloro-phenyl)-[5-((S)-2-phenyl-morpholin-4-ylmethyl)-pyridin-2-yl]-amine] | exhibit agonistic activity | exhibit activity
5 | c1ccc([C@H]2CN(Cc3ccc(Nc4cccc5cnccc45)nc3)CCO2)cc1 [Example 14, Isoquinolin-5-yl-[5-((S)-2-phenyl-morpholin-4-ylmethyl)-pyridin-2-yl]-amine] | exhibit agonistic activity | exhibit activity

Continued, values first:

Row | found to exhibit agonistic activity (human CB2R [1]) | found to exhibit activity (human CB2R [2]) | Structure (SMILES)
6 | exhibit agonistic activity | exhibit activity | c1ccc([C@H]2CN(Cc3ccc(Nc4cc5ccccc5cn4)nc3)CCO2)cc1 [Example 33, Isoquinolin-3-yl-[5-((S)-2-phenyl-morpholin-4-ylmethyl)-pyridin-2-yl]-amine]
7 | exhibit agonistic activity | exhibit activity | Clc1ccc(Nc2ccc(CN3CCO[C@@H](c4ccccc4)C3)cn2)cc1Cl [Example 27, (3,4-Dichloro-phenyl)-[5-((S)-2-phenyl-morpholin-4-ylmethyl)-pyridin-2-yl]-amine]
8 | exhibit agonistic activity | exhibit activity | Cc1ccccc1Nc1ccc(CN2CCO[C@@H](c3ccccc3)C2)cn1 [Example 24, [5-((S)-2-Phenyl-morpholin-4-ylmethyl)-pyridin-2-yl]-o-tolyl-amine]
